These results are taken from ChEMBL document CHEMBL1201862, “PubChem BioAssay data set” (2004).

Each structure is given as a SMILES string. Activity calls are given as the source filed them.

Test [1] addresses T1, Sentrin-specific protease 7 (Homo sapiens, UniProt Q9BQF6).
T1 sequence (Q9BQF6 whole entry): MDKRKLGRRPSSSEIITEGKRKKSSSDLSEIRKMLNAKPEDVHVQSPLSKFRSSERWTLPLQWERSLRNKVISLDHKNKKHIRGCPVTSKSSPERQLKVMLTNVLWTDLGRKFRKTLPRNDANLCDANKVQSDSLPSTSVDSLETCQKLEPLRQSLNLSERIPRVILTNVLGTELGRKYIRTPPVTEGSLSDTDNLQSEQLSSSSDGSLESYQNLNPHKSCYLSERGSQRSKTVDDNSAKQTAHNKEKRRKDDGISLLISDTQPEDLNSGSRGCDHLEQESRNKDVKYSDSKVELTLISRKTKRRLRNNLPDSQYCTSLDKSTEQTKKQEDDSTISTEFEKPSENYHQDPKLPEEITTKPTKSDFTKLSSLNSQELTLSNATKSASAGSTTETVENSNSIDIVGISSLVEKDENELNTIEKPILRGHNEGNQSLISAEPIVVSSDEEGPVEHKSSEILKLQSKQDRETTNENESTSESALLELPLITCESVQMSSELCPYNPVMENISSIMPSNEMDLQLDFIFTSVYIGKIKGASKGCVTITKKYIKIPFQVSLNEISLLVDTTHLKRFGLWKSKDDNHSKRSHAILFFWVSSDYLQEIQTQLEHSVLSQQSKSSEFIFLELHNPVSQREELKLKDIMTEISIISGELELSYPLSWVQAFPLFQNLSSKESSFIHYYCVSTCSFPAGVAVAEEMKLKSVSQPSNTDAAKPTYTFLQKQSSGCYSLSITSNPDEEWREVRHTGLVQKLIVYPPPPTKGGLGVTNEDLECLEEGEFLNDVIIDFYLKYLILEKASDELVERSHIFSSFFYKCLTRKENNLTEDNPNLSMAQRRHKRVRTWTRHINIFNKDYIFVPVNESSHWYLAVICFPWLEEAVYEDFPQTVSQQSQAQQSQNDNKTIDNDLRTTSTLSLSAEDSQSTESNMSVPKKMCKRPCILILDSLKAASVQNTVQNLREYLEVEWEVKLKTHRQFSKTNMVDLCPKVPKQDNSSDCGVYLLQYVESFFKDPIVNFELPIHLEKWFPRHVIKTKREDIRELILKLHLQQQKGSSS
It is filed as functional.

For a further test, the target named is T2, Caspase-3 (Homo sapiens, UniProt P42574).
T2 sequence (P42574 whole entry): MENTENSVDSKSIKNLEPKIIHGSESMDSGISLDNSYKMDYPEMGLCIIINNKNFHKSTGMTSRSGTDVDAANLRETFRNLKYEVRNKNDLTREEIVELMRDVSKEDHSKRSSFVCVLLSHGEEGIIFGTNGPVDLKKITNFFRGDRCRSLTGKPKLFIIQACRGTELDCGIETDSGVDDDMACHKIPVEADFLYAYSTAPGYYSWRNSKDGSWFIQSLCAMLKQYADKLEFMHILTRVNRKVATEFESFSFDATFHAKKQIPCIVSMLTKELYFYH
Briefly: human caspase-3 protease activity blockade – biochemical, fluorescence, cherry-picked samples, selectivity assay for caspase-6 allosteric inhibitor project, dose response (AID 743291).

Test [2] has as its target Testis-specific serine/threonine-protein kinase 1 (Homo sapiens, UniProt Q9BXA7). It is filed as functional.
The target of test [3] is Dual specificity tyrosine-phosphorylation-regulated kinase 3 (Homo sapiens, UniProt O43781). It is filed as functional.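 Note: measured as one member of a broad kinase panel.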
Dual specificity tyrosine-phosphorylation-regulated kinase 3, sequence (O43781 whole entry): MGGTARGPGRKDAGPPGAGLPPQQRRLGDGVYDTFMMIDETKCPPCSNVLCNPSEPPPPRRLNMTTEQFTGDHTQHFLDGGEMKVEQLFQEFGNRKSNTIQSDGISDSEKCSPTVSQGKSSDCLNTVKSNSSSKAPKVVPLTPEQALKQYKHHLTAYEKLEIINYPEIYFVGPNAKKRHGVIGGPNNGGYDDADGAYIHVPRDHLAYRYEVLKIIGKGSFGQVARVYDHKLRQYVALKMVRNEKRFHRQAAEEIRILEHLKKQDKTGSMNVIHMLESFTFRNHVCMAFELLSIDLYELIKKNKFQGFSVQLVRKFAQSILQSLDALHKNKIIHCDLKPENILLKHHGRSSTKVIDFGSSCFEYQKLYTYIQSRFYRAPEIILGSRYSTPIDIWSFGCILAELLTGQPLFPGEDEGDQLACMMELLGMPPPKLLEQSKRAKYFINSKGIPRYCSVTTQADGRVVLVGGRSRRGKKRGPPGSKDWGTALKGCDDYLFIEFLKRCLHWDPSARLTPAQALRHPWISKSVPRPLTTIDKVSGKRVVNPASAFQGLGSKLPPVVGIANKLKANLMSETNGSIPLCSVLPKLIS
The target of the next test is Ephrin type-A receptor 2 (Homo sapiens, UniProt P29317). It counts as functional.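 Note: EPHA2 tested as one member of a kinome-wide kinase panel.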
Ephrin type-A receptor 2, sequence (P29317 whole entry): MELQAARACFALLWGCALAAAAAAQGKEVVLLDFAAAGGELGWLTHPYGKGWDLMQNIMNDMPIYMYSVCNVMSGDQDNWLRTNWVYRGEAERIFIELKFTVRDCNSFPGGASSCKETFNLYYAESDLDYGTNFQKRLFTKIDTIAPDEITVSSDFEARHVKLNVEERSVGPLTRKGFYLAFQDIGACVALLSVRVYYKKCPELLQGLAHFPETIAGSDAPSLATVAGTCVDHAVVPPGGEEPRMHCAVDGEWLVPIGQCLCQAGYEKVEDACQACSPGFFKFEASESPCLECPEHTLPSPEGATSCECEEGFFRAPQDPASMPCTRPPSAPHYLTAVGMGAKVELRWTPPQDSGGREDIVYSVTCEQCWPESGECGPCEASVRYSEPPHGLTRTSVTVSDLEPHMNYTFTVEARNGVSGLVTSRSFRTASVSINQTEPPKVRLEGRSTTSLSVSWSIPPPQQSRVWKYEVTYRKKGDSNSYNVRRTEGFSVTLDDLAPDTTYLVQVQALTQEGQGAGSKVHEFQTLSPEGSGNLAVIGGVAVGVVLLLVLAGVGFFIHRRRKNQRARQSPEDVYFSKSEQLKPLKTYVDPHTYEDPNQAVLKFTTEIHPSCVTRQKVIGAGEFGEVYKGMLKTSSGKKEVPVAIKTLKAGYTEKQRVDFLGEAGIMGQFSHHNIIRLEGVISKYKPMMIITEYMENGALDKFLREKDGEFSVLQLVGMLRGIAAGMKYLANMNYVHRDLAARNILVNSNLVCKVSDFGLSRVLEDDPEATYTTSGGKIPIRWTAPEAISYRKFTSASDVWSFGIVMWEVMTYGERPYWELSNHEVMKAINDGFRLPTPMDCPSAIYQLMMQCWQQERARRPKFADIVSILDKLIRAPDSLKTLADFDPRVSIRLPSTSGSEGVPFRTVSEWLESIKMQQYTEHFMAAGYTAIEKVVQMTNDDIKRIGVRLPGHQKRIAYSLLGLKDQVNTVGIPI
Test [4] deals with Tyrosine-protein kinase FRK (Homo sapiens, UniProt P42685). It counts as functional.
Tyrosine-protein kinase FRK, sequence (P42685 whole entry, canonical isoform): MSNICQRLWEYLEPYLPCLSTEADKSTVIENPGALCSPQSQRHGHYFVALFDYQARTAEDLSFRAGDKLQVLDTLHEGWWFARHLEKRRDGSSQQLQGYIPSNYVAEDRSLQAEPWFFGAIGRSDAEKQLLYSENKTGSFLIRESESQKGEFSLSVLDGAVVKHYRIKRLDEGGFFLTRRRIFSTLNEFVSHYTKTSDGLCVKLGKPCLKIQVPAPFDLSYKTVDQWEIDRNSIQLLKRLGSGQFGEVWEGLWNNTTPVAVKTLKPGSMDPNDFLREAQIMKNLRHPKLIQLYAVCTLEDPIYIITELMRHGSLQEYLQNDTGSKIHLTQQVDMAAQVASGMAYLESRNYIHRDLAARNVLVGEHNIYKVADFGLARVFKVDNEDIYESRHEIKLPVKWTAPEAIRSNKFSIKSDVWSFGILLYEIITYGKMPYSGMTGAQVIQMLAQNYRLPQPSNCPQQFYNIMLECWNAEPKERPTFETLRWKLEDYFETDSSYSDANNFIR
Test [5] deals with Casein kinase I isoform gamma-1 (Homo sapiens, UniProt Q9HCP0). It is filed as functional.
Casein kinase I isoform gamma-1, sequence (Q9HCP0 whole entry, canonical isoform): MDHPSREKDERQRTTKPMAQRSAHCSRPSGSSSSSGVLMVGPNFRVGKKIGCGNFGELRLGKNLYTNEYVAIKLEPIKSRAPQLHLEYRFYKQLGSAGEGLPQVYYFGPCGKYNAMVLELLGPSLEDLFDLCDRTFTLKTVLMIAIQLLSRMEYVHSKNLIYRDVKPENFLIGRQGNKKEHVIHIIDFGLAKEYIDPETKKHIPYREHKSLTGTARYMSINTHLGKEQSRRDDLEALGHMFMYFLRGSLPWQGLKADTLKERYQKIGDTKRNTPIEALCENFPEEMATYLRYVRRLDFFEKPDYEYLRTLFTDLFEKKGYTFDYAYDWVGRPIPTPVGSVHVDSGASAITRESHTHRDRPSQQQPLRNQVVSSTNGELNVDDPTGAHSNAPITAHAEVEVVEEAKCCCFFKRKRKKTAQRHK
Test [6] deals with Casein kinase I isoform delta (Homo sapiens, UniProt P48730). It is filed as functional.
Casein kinase I isoform delta, sequence (P48730 whole entry, canonical isoform): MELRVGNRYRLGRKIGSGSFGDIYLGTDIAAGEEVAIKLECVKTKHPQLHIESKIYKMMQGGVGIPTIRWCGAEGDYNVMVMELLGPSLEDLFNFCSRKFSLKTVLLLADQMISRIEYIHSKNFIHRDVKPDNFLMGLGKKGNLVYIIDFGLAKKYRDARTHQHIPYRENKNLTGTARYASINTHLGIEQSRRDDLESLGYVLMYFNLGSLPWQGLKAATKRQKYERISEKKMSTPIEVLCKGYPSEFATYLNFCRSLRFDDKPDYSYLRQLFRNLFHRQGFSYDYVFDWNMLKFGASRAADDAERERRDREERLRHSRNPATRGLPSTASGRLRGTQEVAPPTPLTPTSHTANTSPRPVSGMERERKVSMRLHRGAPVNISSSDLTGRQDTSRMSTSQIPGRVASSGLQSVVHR
Test [7] has as its target MAP kinase-activated protein kinase 2 (Homo sapiens, UniProt P49137). It counts as functional.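 Note: measured as one member of a kinome-wide kinase panel.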
The target in test [8] is 3-phosphoinositide-dependent protein kinase 1 (Homo sapiens, UniProt O15530). It counts as functional.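 Note: value comes from the Navigating the Kinome panel, PDPK1 member.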
3-phosphoinositide-dependent protein kinase 1, sequence (O15530 whole entry): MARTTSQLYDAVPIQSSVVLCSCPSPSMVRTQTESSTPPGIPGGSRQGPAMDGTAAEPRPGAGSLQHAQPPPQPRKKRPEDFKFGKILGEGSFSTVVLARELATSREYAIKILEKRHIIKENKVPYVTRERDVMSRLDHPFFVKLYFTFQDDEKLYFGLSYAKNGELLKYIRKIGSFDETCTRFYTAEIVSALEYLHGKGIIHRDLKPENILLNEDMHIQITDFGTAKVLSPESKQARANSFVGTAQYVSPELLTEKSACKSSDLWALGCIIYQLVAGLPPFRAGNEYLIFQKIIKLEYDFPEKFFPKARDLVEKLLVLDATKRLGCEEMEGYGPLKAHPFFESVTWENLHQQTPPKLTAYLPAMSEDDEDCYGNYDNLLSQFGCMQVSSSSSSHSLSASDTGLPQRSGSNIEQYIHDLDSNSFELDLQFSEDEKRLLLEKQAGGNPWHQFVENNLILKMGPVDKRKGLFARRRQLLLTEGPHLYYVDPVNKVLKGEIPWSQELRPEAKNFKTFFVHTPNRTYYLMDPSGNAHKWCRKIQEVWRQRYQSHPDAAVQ
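Throughout, for IC50: Luminescence-based dose-response confirmation of ultra-high-throughput screening hits, measuring inhibition of SENP7.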

Testis-specific serine/threonine-protein kinase 1, sequence (Q9BXA7 whole entry): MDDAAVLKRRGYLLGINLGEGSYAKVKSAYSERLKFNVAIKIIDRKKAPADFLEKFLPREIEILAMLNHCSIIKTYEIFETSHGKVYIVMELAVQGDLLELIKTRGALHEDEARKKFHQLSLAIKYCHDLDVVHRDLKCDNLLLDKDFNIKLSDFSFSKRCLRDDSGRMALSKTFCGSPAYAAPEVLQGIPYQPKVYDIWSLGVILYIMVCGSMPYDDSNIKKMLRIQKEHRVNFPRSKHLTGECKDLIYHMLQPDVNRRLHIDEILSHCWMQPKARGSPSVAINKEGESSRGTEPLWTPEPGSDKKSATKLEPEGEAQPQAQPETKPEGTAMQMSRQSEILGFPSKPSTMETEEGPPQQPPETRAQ
MAP kinase-activated protein kinase 2, sequence (P49137 whole entry): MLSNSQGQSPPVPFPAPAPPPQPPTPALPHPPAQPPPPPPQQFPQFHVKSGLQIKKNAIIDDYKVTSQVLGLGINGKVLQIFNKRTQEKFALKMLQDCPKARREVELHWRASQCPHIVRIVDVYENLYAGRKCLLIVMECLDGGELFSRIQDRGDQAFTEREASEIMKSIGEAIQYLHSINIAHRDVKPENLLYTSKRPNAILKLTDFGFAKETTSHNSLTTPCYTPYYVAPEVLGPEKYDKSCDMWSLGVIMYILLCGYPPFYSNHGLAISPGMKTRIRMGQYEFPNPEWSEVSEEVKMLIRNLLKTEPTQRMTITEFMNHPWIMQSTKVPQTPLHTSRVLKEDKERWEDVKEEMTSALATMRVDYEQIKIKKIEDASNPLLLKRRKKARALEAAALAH

Regarding `O=C(COC(=O)c1ccc([N+](=O)[O-])s1)Nc1ccc(F)cc1`, in test [1], the IC50 (usually the concentration that inhibits the measured activity by half) is 6290 nM (active).
For the compound `CCN(CC)CCCC(C)n1c2nc(=O)[nH]c(=O)c-2nc2cc(Cl)ccc21` (configuration not stated), at Caspase-3, the concentration at half-maximal activity (AC50) (in general, the concentration at which the activity in the assay is half-maximal) is 561 nM (active).
As for `OC1CCC(Nc2nc(Cl)cc(-c3c[nH]c4ncccc34)n2)CC1` (configuration not stated), the Ki (as a rule, the dissociation constant of the complex between target and ligand, obtained from inhibition or displacement) was 126 nM (active) in test [2]; 5.01 nM (active) in test [3]; > 3160 nM (inactive) on Ephrin type-A receptor 2; 398 nM (active) in test [4]; 316 nM (active) in test [5]; 20 nM (active) in test [6]. In addition, the Ki in test [7] is 3980 nM (active); in test [8], 501 nM (active). Further, the pKi (as a rule, the negative decadic logarithm of the Ki, by convention in mol/L) in test [2] is on record as 6.9; in test [3], 8.3; in test [4], 6.4; in [5], 6.5; in [6], 7.7; in test [7] it was 5.4. Moreover, the pKi in test [8] is 6.3.
